{"source": "patent US10538512B2", "about": "“Aminoacylindazole immunomodulators for treatment of autoimmune diseases” (The Rockefeller University, priority 2016, dated 2020)", "data": [{"target": "T1, Human FXIIa (Homo sapiens, UniProt P00748)", "T1 construct": "active coagulation factor XII (FXIIa); purchased Enzyme Research Labs", "T1 sequence (P00748 373-615 limits assumed)": "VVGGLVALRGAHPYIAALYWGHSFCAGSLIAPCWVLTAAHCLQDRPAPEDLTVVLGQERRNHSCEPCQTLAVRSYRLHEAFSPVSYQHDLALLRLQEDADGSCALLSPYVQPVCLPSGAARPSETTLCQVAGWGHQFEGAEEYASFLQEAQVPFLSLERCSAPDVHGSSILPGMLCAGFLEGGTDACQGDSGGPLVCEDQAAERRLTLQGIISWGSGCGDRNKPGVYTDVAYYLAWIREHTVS", "T1 sequence (P00748 20-372 partner limits assumed)": "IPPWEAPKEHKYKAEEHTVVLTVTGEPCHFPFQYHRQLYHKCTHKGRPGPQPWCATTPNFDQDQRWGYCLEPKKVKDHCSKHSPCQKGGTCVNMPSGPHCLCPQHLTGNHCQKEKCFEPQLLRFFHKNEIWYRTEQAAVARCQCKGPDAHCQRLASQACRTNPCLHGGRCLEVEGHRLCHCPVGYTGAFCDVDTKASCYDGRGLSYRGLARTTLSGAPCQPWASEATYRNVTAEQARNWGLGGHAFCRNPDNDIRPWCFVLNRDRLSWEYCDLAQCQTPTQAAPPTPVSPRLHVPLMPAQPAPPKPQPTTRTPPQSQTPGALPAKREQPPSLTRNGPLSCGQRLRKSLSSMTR", "test": "Factor XIIa (FXIIa) inhibitory activity, chromogenic substrate assay", "format": "biochemical", "conditions": "Human FXIIa 12.5 nM, Pefachrome XIIa 400 μM, 10 min preincubation", "description": "Factor XIIa (FXIIa) Inhibitory Activity:\nIn a 96-well clear bottom plate, 80 μl of assay buffer was added to each well. Assay buffer consists of 0.5× Hank's Balanced Salt Solution (Invitrogen), buffered with 25 mM HEPES pH 7.4 (Invitrogen) and 0.5× Tris-buffered saline with Tween-20 0.05% (Santa Cruz Biotechnology). Test compounds were first dissolved in DMSO (Sigma) and then 4 μl were added to test wells containing assay buffer. Serial dilutions using an automated multi-channel pipette were used to generate a concentration range of approximately 1-100 μM. […] 80 μl of this enzyme solution was added to the assay wells. The enzyme/compound mixtures were incubated for 10 minutes at room temperature. Chromogenic substrate (Pefachrome XIIa; Enzyme Research Labs) was added to assay wells at a final concentration of 400 μM. The assay plate was spun for 1 minute at 1500 g and then read at 37° C. in a SpectraMax M2 plate reader (λ=405 nm). Activity was quantified as the rate of change in absorbance, which corresponds to the rate of substrate cleavage.", "units": {"IC50": "µM"}, "values": [{"smiles": "Nc1c2c(nn1C(=O)[C@@H]1CCNc3ccc(F)cc31)CC[C@H](F)C2", "note": "(single isomer, unassigned) [Example 141, ((5S*)-3-amino-5-fluoro-4,5,6,7-tetrahydroindazol-2-yl)((4R*)-6-fluoro-1,2,3,4-tetrahydroquinolin-4-yl)methanone]", "IC50": 17}, {"smiles": "Cc1cccc2c1NCCC2C(=O)n1nc(N)c2c1CCC=C2", "note": "(centres unmarked) [Example 196, (3-amino-6,7-dihydroindazol-1-yl)(8-methyl-1,2,3,4-tetrahydroquinolin-4-yl)methanone]", "IC50": 7.5}, {"smiles": "Nc1c2c(nn1C(=O)C1CCNc3cc(Cl)ccc31)CCCC2", "note": "(centres unmarked) [Example 103, (3-amino-4,5,6,7-tetrahydroindazol-2-yl)(7-chloro-1,2,3,4-tetrahydroquinolin-4-yl)methanone]", "IC50": 0.7}, {"smiles": "Nc1c2c(nn1C(=O)[C@@H]1CCNc3c(Cl)cccc31)C[C@@H](O)CC2", "note": "(single isomer, unassigned) [Example 206, ((6S*)-3-amino-6-hydroxy-4,5,6,7-tetrahydroindazol-2-yl)((4R*)-8-chloro-1,2,3,4-tetrahydroquinolin-4-yl)methanone]", "IC50": 2.8}, {"smiles": "Nc1nn(C(=O)C2CCNc3ccc(F)cc32)c2c1CC(F)CC2", "note": "(single isomer, unassigned) [Example 142, ((5S*)-3-amino-5-fluoro-4,5,6,7-tetrahydroindazol-1-yl)((4R/S)-6-fluoro-1,2,3,4-tetrahydroquinolin-4-yl)methanone]", "IC50": 65}, {"smiles": "Nc1c2c(nn1C(=O)[C@@H]1CCNc3ccc(F)cc31)CC[C@@H](N)C2", "note": "(stereo in doubt) [Example 188, ((5R*)-3,5-diamino-4,5,6,7-tetrahydroindazol-2-yl)((4R*)-6-fluoro-1,2,3,4-tetrahydroquinolin-4-yl)methanone]", "IC50": "> 80"}, {"smiles": "Nc1nn(C(=O)C2CCNc3c(Cl)cccc32)c2c1CCC(O)C2", "note": "(single isomer, unassigned) [Example 208, ((6S*)-3-amino-6-hydroxy-4,5,6,7-tetrahydroindazol-1-yl)(8-chloro-1,2,3,4-tetrahydroquinolin-4-yl)methanone]", "IC50": "> 100"}, {"smiles": "Nc1nn(C(=O)[C@H]2CCNc3c(Cl)cccc32)c2c1CC[C@@H](O)C2", "note": "(single isomer, unassigned) [Example 211, ((6R*)-3-amino-6-hydroxy-4,5,6,7-tetrahydroindazol-1-yl)((4S*)-8-chloro-1,2,3,4-tetrahydroquinolin-4-yl)methanone]", "IC50": "> 100"}, {"smiles": "CN1CCC(C(=O)n2nc3c(c2N)CCCC3)c2ccccc21", "note": "(single isomer, unassigned) [Example 25, (3-Amino-4,5,6,7-tetrahydroindazol-2-yl)(1-methyl-1,2,3,4-tetrahydroquinolin-4-yl)methanone]", "IC50": 0.3}, {"smiles": "Nc1nn(C(=O)C2CCNc3cc(Cl)ccc32)c2c1CCCC2", "note": "(centres unmarked) [Example 104, (3-amino-4,5,6,7-tetrahydroindazol-1-yl)(7-chloro-1,2,3,4-tetrahydroquinolin-4-yl)methanone]", "IC50": "> 50"}, {"smiles": "Nc1nn(C(=O)[C@@H]2CCNc3ccc(Cl)cc32)c2c1C[C@@H](O)CC2", "note": "(single isomer, unassigned) [Example 145, ((5S*)-3-amino-5-hydroxy-4,5,6,7-tetrahydroindazol-1-yl)((4R*)-6-chloro-1,2,3,4-tetrahydroquinolin-4-yl)methanone]", "IC50": "> 80"}, {"smiles": "Nc1nn(C(=O)C2CCNc3ccc(F)cc32)c2c1CC(F)(F)CC2", "note": "(centres unmarked) [Example 175, (3-amino-5,5-difluoro-4,5,6,7-tetrahydroindazol-1-yl)(6-fluoro-1,2,3,4-tetrahydroquinolin-4-yl)methanone]", "IC50": 16}, {"smiles": "Cc1ccc2c(c1)NCCC2C(=O)n1nc2c(c1N)CCCC2", "note": "(centres unmarked) [Example 101, (3-amino-4,5,6,7-tetrahydroindazol-2-yl)(7-methyl-1,2,3,4-tetrahydroquinolin-4-yl)methanone]", "IC50": 0.9}, {"smiles": "Nc1c2c(nn1C(=O)[C@@H]1CCNc3ccc(Cl)cc31)CC[C@H](O)C2", "note": "(single isomer, unassigned) [Example 144, ((5S*)-3-amino-5-hydroxy-4,5,6,7-tetrahydroindazol-2-yl)((4R*)-6-chloro-1,2,3,4-tetrahydroquinolin-4-yl)methanone]", "IC50": 9}, {"smiles": "Nc1c2c(nn1C(=O)[C@@H]1CCNc3ccc(Cl)cc31)CC[C@@H](O)C2", "note": "(single isomer, unassigned) [Example 147, ((5R*)-3-amino-5-hydroxy-4,5,6,7-tetrahydroindazol-2-yl)((4R*)-6-chloro-1,2,3,4-tetrahydroquinolin-4-yl)methanone]", "IC50": 33}, {"smiles": "Nc1c2c(nn1C(=O)c1cccc3ccccc13)CCCC2", "note": "[Example 39, (3-amino-4,5,6,7-tetrahydroindazol-2-yl)(naphthalen-1-yl)methanone]", "IC50": 4}, {"smiles": "Cc1cc2c(C(=O)n3nc4c(c3N)CCCC4)cccc2s1", "note": "[Example 57, (3-Amino-4,5,6,7-tetrahydro-indazol-2-yl)-(2-methyl-benzo[b]thiophen-4-yl)-methanone]", "IC50": 0.06}, {"smiles": "Cc1cccc2c1NCC[C@H]2C(=O)n1nc2c(c1N)CC[C@@H](O)C2", "note": "(single isomer, unassigned) [Example 200, ((6R*)-3-amino-6-hydroxy-4,5,6,7-tetrahydroindazol-2-yl)((4R*)-8-methyl-1,2,3,4-tetrahydroquinolin-4-yl)methanone]", "IC50": 3.3}, {"smiles": "CCc1cc2c([nH]1)CCCC2C(=O)n1nc2c(c1N)CCCC2", "note": "(single isomer, unassigned) [Example 83, (S*)-(3-amino-4,5,6,7-tetrahydroindazol-2-yl)(2-ethyl-4,5,6,7-tetrahydro-1H-indol-4-yl)methanone]", "IC50": 0.02}, {"smiles": "Nc1nn(C(=O)C2CCNc3ccc(F)cc32)c2c1CC(NC(=O)OCc1ccccc1)CC2", "note": "(single isomer, unassigned) [Example 191, benzyl N-[(5S*)-3-amino-1-[(6-fluoro-1,2,3,4-tetrahydroquinolin-4-yl)carbonyl]-4,5,6,7-tetrahydro-1H-indazol-5-yl]carbamate]", "IC50": "> 55"}, {"smiles": "Cc1cccc2c1NCC[C@@H]2C(=O)n1nc(N)c2c1C[C@H](O)CC2", "note": "(single isomer, unassigned) [Example 201, ((6R*)-3-amino-6-hydroxy-4,5,6,7-tetrahydroindazol-1-yl)((4S*)-8-methyl-1,2,3,4-tetrahydroquinolin-4-yl)methanone]", "IC50": "> 150"}, {"smiles": "Nc1c2c(nn1C(=O)c1ccnc3ccccc13)CCCC2", "note": "[Example 158]", "IC50": 13}, {"smiles": "Cc1cc2c(C(=O)n3nc(N)c4c3CCC(OCc3ccccc3)C4)cccc2[nH]1", "note": "(centres unmarked) [Example 118, (3-amino-5-(benzyloxy)-4,5,6,7-tetrahydroindazol-1-yl)(2-methyl-1H-indol-4-yl)methanone]", "IC50": 20}, {"smiles": "Nc1nn(C(=O)[C@@H]2CCNc3ccc(F)cc32)c2c1C[C@H](O)CC2", "note": "(relative stereo) [Example 132, ((5R*)-3-amino-5-hydroxy-4,5,6,7-tetrahydro-2H-indazol-1-yl)((4R*)-6-fluoro-1,2,3,4-tetrahydroquinolin-4-yl)methanone]", "IC50": "> 90"}, {"smiles": "Cc1cc2c(C(=O)n3cc4c(n3)CCCC4)cccc2[nH]1", "note": "[Example 159]", "IC50": 0.15}, {"smiles": "Nc1c2c(nn1C(=O)C1CCCc3[nH]ccc31)CCCC2", "note": "(single isomer, unassigned) [Example 94, (S*)-(3-amino-4,5,6,7-tetrahydroindazol-2-yl)(4,5,6,7-tetrahydro-1H-indol-4-yl)methanone]", "IC50": 0.25}]}]}
